Results published in patent US9079913B2, “Spiro-oxindole MDM2 antagonists” (The Regents of the University of Michigan, priority 2009, dated 2015).
Like-named read-outs stand apart in the source and are kept apart here.

Columns and labels:
[1] = system: Isogenic HCT-116 colon cancer cell lines; assay: cells; format: cell-based; conditions: Homo sapiens;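 note: cells grown in 96-well plates in McCoy's 5A medium with 10% FBS, exposed to compound for 4 days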
Description: Cells were seeded in 96-well flat bottom cell culture plates at a density of 2−3×10^3 cells/well with compounds and incubated for 4 days.

[2] = system: cancer cell lines with wild-type p53 / mutated or deleted p53 (ATCC); assay: Cell growth assay (WST-8), other cancer cell lines; format: cell-based; conditions: Homo sapiens
[3] = In vitro microsomal stability, rat; format: in vitro ADME
[4] = HCT-116, read-out: HCT-116 (p53 wild-type) IC50
[5] = HCT-116, read-out: HCT-116 (p53-/-) IC50, Table 19A, HCT-116 p53-/-, cell growth
[6] = HCT-116, read-out: HCT-116 (p53 wild-type) IC50, Table 19A, HCT-116 p53 wild-type, cell growth
[7] = LNCaP, Table 19A, LNCAP cells, p53 wild-type, cell growth, read-out: LNCAP (p53 wild-type) IC50
[8] = PC-3, Table 19A, PC-3 cells, deleted p53, cell growth, read-out: PC-3 (deleted p53) IC50
[9] = SJSA-1, Table 19A, SJSA-1 cells, p53 wild-type, cell growth, read-out: SJSA-1 (p53 wild-type) IC50
[10] = LNCaP, read-out: LNCAP (p53 wild-type) IC50

For `CC(C)(C)C[C@@H]1N[C@@H](C(=O)NC2CCC(O)CC2)[C@H](c2cccc(F)c2F)[C@]12C(=O)Nc1cc(Cl)ccc12` (some centres unmarked) [MI-710201], the IC50 [1, 4] was 300 nM.

Compound `CC(C)(C)C[C@H]1N[C@@H](C(=O)NC2CCN(CC(F)F)CC2)[C@H](c2cccc(Cl)c2F)[C@@]12C(=O)Nc1cc(Cl)ccc12` [MI-519-66] has an IC50 ([1]; HCT-116, read-out: HCT116p53KO IC50, Table 19D, HCT116 p53KO) of 5510 nM, an IC50 ([1]; HCT-116, read-out: HCT116p53WT IC50, Table 19D, HCT116 p53WT) of under 2000 nM and an IC50 ([2]; LNCaP, Table 19D, LNCaP cells, read-out: LNCaP IC50) of under 3000 nM. The IC50 ([2]; PC-3, Table 19D, PC3 cells, read-out: PC3 IC50) was 6890 nM and the IC50 ([2]; Table 19D, SJSA-1 cells, unit inferred, read-out: SJSA-1) was under 3000 nM.

In the case of `CC(C)(C)CC1NC(C(=O)NCCN2CCOCC2)C(c2cccc(Cl)c2F)C12C(=O)Nc1cc(Cl)ccc12` (centres unmarked) [MI-63], the “% of compound remaining when incubated in rat liver microsomes” value (shortened to “% of compound remaining when incubated”) ([3]; Table 16, 0 min) is reported as 100%, the “% of compound remaining when incubated” value ([3]; Table 16, 4 min) is reported as 76% and the “% of compound remaining when incubated” value ([3]; Table 16, 6 min) is reported as 57.9%. The “% of compound remaining when incubated” value ([3]; Table 16, 10 min) was 35.4%, the “% of compound remaining when incubated” value ([3]; Table 16, 15 min) was 27.7% and the “% of compound remaining when incubated” value ([3]; Table 16, 30 min) was 21%.

For `CC(C)(C)C[C@H]1N[C@@H](C(=O)NCC[C@H]2CC[C@H](NS(C)(=O)=O)C2)[C@H](c2cccc(Cl)c2F)[C@@]12C(=O)Nc1cc(Cl)c(F)cc12` [MI-766], the IC50 [1, 5] was 6900 ± 1400 nM, the IC50 [1, 6] was 700 nM and the IC50 [2, 7] was 900 nM. It also gave an IC50 [2, 8] of 5900 ± 2200 nM and an IC50 [2, 9] of 1700 ± 1400 nM.

In the case of `CC(C)(C)C[C@H]1N[C@@H](C(=O)NCC[C@H]2CC[C@H](N)C2)[C@H](c2cccc(Cl)c2F)[C@@]12C(=O)Nc1cc(Cl)c(F)cc12` [MI-767], the IC50 [1, 5] is reported as 2400 ± 1000 nM, the IC50 [1, 6] is reported as 700 ± 200 nM and the IC50 [2, 7] is reported as 900 ± 200 nM. For the same compound, the IC50 [2, 8] was 2200 ± 100 nM and the IC50 [2, 9] was 900 ± 600 nM.

`CC(C)(C)C[C@H]1N[C@@H](C(=O)NCCCN2CCCC2)[C@H](c2cccc(Cl)c2F)[C@@]12C(=O)Nc1cc(Cl)ccc12` [MI-519-43] showed an IC50 [1, 5] of 4100 ± 500 nM, an IC50 [1, 6] of 900 nM and an IC50 [2, 7] of 1000 nM. For the same compound, the IC50 [2, 8] was 3400 nM, the IC50 [2, 9] was 900 ± 100 nM and the “% of compound remaining when incubated” value ([3]; Table 17, 0 min) was 100%. The “% of compound remaining when incubated” value ([3]; Table 17, 4 min) was 92.3%, the “% of compound remaining when incubated” value ([3]; Table 17, 6 min) was 86.1% and the “% of compound remaining when incubated” value ([3]; Table 17, 10 min) was 70.6%. The “% of compound remaining when incubated” value ([3]; Table 17, 15 min) was 69.9%, the “% of compound remaining when incubated” value ([3]; Table 17, 30 min) was 62.5% and the “microsomal stability (in words)” value ([3]; rat liver microsomes) was “improved microsomal stability over MI-219”.

`CN1[C@@H](C(=O)NCCN2CCOCC2)[C@H](c2cccc(Cl)c2F)[C@@]2(C(=O)Nc3cc(F)c(F)cc32)[C@H]1CC(C)(C)C` [MI-722] gave an IC50 ([1]; HCT-116, read-out: Inhibition of cell growth IC50, HCT116 p53 KO, Table 19B, HCT116 p53 KO) of over 100000 nM, an IC50 ([1]; HCT-116, read-out: Inhibition of cell growth IC50, HCT116 p53 WT, Table 19B, HCT116 p53 WT) of over 100000 nM and an IC50 ([2]; LNCaP, Table 19B, LNCaP cells, read-out: Inhibition of cell growth IC50, LNCaP) of over 100000 nM. It also gave an IC50 ([2]; PC-3, Table 19B, PC3 cells, read-out: Inhibition of cell growth IC50, PC3) of over 100000 nM.

`CC(C)(C)C[C@H]1N[C@@H](C(=O)N[C@H]2C[C@H](NS(C)(=O)=O)C2)[C@H](c2cccc(Cl)c2F)[C@@]12C(=O)Nc1cc(Cl)ccc12` [MI-519-61] showed an IC50 [1, 4] of under 3000 nM, an IC50 [2, 10] of under 3000 nM and an IC50 ([2]; SJSA-1, read-out: SJSA-1 (p53 wild-type) IC50) of under 3000 nM.

`CC(C)(C)C[C@H]1N[C@@H](C(=O)N[C@H]2CC[C@H](O)C2)[C@H](c2cccc(Cl)c2F)[C@@]12C(=O)Nc1cc(Cl)ccc12` [MI-519-51-epi] showed an IC50 [2, 10] of under 2000 nM and an IC50 ([2]; PC-3, read-out: PC-3 (deleted p53) IC50) of over 10000 nM.

In the case of `CCN1CCN(CCNC(=O)C2NC(CC(C)(C)C)C3(C(=O)Nc4cc(Cl)ccc43)C2c2cccc(Cl)c2F)CC1` (centres unmarked) [MI-129], the “% of compound remaining when incubated” value ([3]; Table 16, 0 min) is reported as 100%, the “% of compound remaining when incubated” value ([3]; Table 16, 4 min) is reported as 74.4% and the “% of compound remaining when incubated” value ([3]; Table 16, 6 min) is reported as 52.5%. The “% of compound remaining when incubated” value ([3]; Table 16, 10 min) was 41.1%, the “% of compound remaining when incubated” value ([3]; Table 16, 15 min) was 36.7% and the “% of compound remaining when incubated” value ([3]; Table 16, 30 min) was 33.1%.

`CC(C)(C)C[C@H]1N[C@@H](C(=O)NCCNS(C)(=O)=O)[C@H](c2cccc(Cl)c2F)[C@@]12C(=O)Nc1cc(Cl)c(F)cc12` [MI-769] gave an IC50 [1, 5] of 10200 nM, an IC50 [1, 6] of 1600 nM and an IC50 [2, 7] of 1500 nM. The IC50 [2, 8] was 13000 nM and the IC50 [2, 9] was 600 nM.

With `CC(C)N1CCN(CCNC(=O)[C@@H]2N[C@H](CC(C)(C)C)[C@]3(C(=O)Nc4cc(Cl)ccc43)[C@H]2c2cccc(Cl)c2F)CC1` [MI-130] the “% of compound remaining when incubated” value ([3]; Table 16, 0 min) was 100%, the “% of compound remaining when incubated” value ([3]; Table 16, 4 min) was 77.2% and the “% of compound remaining when incubated” value ([3]; Table 16, 6 min) was 60.1%. For the same compound, the “% of compound remaining when incubated” value ([3]; Table 16, 10 min) was 48%, the “% of compound remaining when incubated” value ([3]; Table 16, 15 min) was 42.3% and the “% of compound remaining when incubated” value ([3]; Table 16, 30 min) was 34.1%.

`CC(C)(C)C[C@H]1N[C@@H](C(=O)NCCCCN2CCCC2)[C@H](c2cccc(Cl)c2F)[C@@]12C(=O)Nc1cc(Cl)c(F)cc12` [MI-765] gave an IC50 [1, 5] of 4700 ± 2000 nM, an IC50 [1, 6] of 1100 ± 200 nM and an IC50 [2, 7] of 1500 ± 900 nM. It also gave an IC50 [2, 8] of 2600 ± 200 nM and an IC50 [2, 9] of 1400 ± 100 nM.
